≈ marks a conversion by molar mass, not a printed value.
System: KB
Test: Cytotoxicity against human KB cells
Format: functional, cell-based

Row | SMILES | IC50 [µg/mL]
1 | C=C(C)/C=C/c1cc2c(=O)c3c(O)cccc3oc2c(OC)c1O [GLOBULIXANTHONE A] | 2.15 (≈ 6.63 µM)
2 | CC(C)=CCCC1(C)C=Cc2c(cc(O)c3oc4cccc(O)c4c(=O)c23)O1 (configuration not stated) [GLOBULIXANTHONE B] | 1.78 (≈ 4.7 µM)

Source: ChEMBL document CHEMBL1148143, “Globulixanthones A and B, two new cytotoxic xanthones with isoprenoid groups from the root bark of Symphonia globulifera” (J Nat Prod, 2002)
